Here are results for 37 compounds from PubChem BioAssay AID463074 (Broad Institute, 2010).

In this test the test system is HMLE_sh_eGFP viability, CellTiter-Glo luminescence, 72 h. Nature of the test: cytotoxicity in HMLE control line with eGFP shRNA, dose response, counter-screen for HMLE_sh_ECad selective toxicity project, cell-based, HMLE_sh_eGFP, luminescence (AID 463074).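 Further: counterscreen control line to flag general toxicity for the HMLE_sh_ECad screen; potency for loss of viability as luminescence drops below DMSO wells.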
`O=C1NC(=O)N(Cc2ccccc2)C(=O)/C1=C/C=C/c1ccco1`: the AC50 is 2.04 µM.

In the case of `CC(C)=CCC/C(C)=C/Cc1c(O)ccc(C(=O)/C=C/c2ccc(O)cc2)c1O`, the AC50 is 6.42 µM.

On to `COc1c(OC(C)=O)ccc(/C=C/c2ccc3cccc(OCc4ccccc4)c3n2)c1[N+](=O)[O-]`, for which the AC50 is 3.37 µM.

As to `CN(C)CCOc1ccc(C(C)(C)c2ccccc2)cc1`, the AC50 is 5.19 µM.

In the case of `COc1cc2cnc(-c3ccccc3)c(-c3cccc(C(F)(F)F)c3)c2cc1OC`, the AC50 is 6.67 µM.

On to `Cc1ccc(-c2cc(NC(=O)CCl)n(-c3ccccc3)n2)cc1`, for which the AC50 was 7.29 µM.

Regarding `Cn1c(=O)n(Cc2ccc(F)cc2)c(=O)c2c1nc1n2CCCN1C1CCCCC1`, the half-maximal activity concentration (AC50) is 4.43 µM.

`COc1cc(/C=N/Nc2nc(Nc3ccccc3)nc(-n3nc(C)cc3C)n2)cc(OC)c1OC`: the AC50 was 3.7 µM.

With `O=C(Nc1ccc(Nc2ccccc2)cc1)c1cccc(F)c1`, the AC50 was 17.6 µM.

For the compound `Cc1cc(OCc2cc(C(=O)N3CCC(Oc4cccnc4)CC3)no2)cc(C)c1Cl`, the AC50 was 8.31 µM.

For the compound `COc1ccc(S[C@@H](CCN2CC[C@H](NC(=O)OCc3ccccc3)CCC2=O)c2ccccc2)cc1`, the AC50 was 3.12 µM.

On to `O=C(O)c1cccc(S(=O)(=O)NNc2ccccc2C(F)(F)F)c1`, for which the AC50 was 11.3 µM.

As for `CCOC(=O)c1c(NC(=O)C(=O)N/N=C/c2ccccc2O)sc2c1CCCCC2`, the AC50 was 2.84 µM.

Regarding `O=C(Nc1ccc2nc3n(c(=O)c2c1)CCCCC3)c1cc([N+](=O)[O-])ccc1F`, the AC50 was 6.62 µM.

`C=C(C)CNC(=S)NNC(=O)CCn1c2ccc(Cl)cc2c2cc(Cl)ccc21`: the AC50 is 1.8 µM.

In the case of `Cc1cccc(N2CCN(C(=O)c3cc4n(n3)C(C(F)(F)F)CC(c3ccco3)N4)CC2)c1C` (configuration not stated), the AC50 was 9.71 µM.

For `O=C(Nc1ccncc1)c1cc(-c2cccc(Br)c2)nc2ccccc12`, the AC50 is 5.99 µM.

As to `C=C(C)[C@@H]1CC[C@]2(C(=O)O)CC[C@]3(C)C(CCC4[C@@]5(C)CC[C@H](O)C(C)(C)C5CC[C@]43C)C12` (some centres not stated), the AC50 was 5.71 µM.

For `CCc1ccc(CCC(=O)Nc2ncc(Cc3ccccc3Cl)s2)o1`, the AC50 is 0.322 µM.

`CCCc1cc2c(=O)c(-c3ccc4c(c3)OCCO4)coc2cc1OC(=O)c1ccco1`: the AC50 is 10.9 µM.

As for `CC(C)N1CCN(Cc2ccc(OC3CCCC3)cc2)CC1CCO` (configuration not stated), the AC50 is 16.7 µM.

With `COc1ccc(CCNc2cc(C)nc3c(-c4ccc(Cl)cc4)c(C)nn23)cc1OC`, the AC50 is 3.62 µM.

As for `Cc1cc(Nc2cccc(F)c2)nc(-c2ccccc2O)n1`, the AC50 is 6.41 µM.

On to `COc1ccc(/C=C/C(=O)c2ccc(NS(=O)(=O)c3ccc(C)cc3)cc2)cc1O`, for which the AC50 was 3.56 µM.

For `Cc1ccc(S(=O)(=O)Nc2ccc(-c3nnc(SCc4ccccc4Cl)o3)cc2)cc1`, the AC50 is 5.7 µM.

Take `COc1cc(SC#N)ccc1N=Cc1c(C)[nH]n(-c2ccc(C)cc2)c1=O`: the AC50 is 5.99 µM.

As for `OC(CNCC(c1ccc(Cl)cc1Cl)c1c[nH]c2ccccc12)c1ccccc1` (configuration not stated), the AC50 was 2.88 µM.

`COc1ccc(CNCC(O)COc2ccc(C(C)(C)c3ccccc3)cc2)cc1` (configuration not stated): the AC50 is 3.22 µM.

For `CN1CCN(C2=Cc3cc(Cl)ccc3Sc3cc(F)ccc32)CC1`, the AC50 is 7.29 µM.

Turning to `CCCOc1c(OC)cccc1C1CC(=O)Nc2cc3c(cc21)OCCO3` (configuration not stated), the half-maximal activity concentration (AC50) was 2.95 µM.

Take `O=C(Nc1cccc(Cl)c1N1CCCC1)c1cccc(-c2cc3ccccc3oc2=O)c1`: the AC50 was 0.869 µM.

For `Cc1ccc(NNC(=O)c2ccno2)cc1Cl`, the AC50 is 4 µM.

`Cc1cc2oc(=O)c(CC(=O)NCCCN(C)C)c(C)c2c2occ(C(C)(C)C)c12`: the AC50 was 2.85 µM.

In the case of `Nc1nc(=S)c2ncn([C@@H]3O[C@H](CO)[C@@H](O)[C@H]3O)c2[nH]1`, the AC50 was 0.465 µM.

`CCC(=O)NC(=S)Nc1cccc(Cl)c1N1CCCCC1`: the AC50 is 9.96 µM.

Turning to `N#C/C(=C/c1cn(-c2ccccc2)nc1-c1cccc(OCc2ccc(F)cc2)c1)C(=O)NCCCn1ccnc1`, the AC50 was 3.4 µM.

Regarding `O=C(Nc1cccc(-c2csc(Nc3ccccc3)n2)c1)c1ccccc1`, the AC50 was 4.45 µM.
